Test results: patent publication US20190275040A1, “COMPOUNDS AND METHODS FOR TREATING OR PREVENTING ALZHEIMER'S DISEASE” (YALE UNIVERSITY, priority 2016, published 2019)
pKi: −log10 of the molar value. Like-named read-outs stand apart in the source and are kept apart here.

Columns and labels:
Pyk2 activation (p-Pyk2) = experiment: Pyk2 activation and Aβo-induced signaling in cells; assay type: cell-based; settings: 500 nM
Experimental: In brain slices and in dissociated primary neuronal cultures, Aβo causes Fyn activation, Pyk2 activation, altered Glu-induced calcium signaling, dendritic spine loss and suppression of LTP. […] After developing LC/MS/MS methods to detect PF-719, the extent to which the Pyk2 inhibitor enters brain from peripheral dosing was determined. […] Continuous 25 mg/kg/d minipump i.p. infusion was chosen for treatment of APP/PS1 mice.

Pyk2 [1] = target: T1, Pyk2 (Homo sapiens, UniProt Q14289); experiment: Luciferase-based (ADP-Glo) PYK2 kinase assay; assay type: biochemical
Experimental: Enzyme, substrate, ATP and inhibitors are diluted in Tyrosine Kinase Buffer. […] The resulting system is incubated at room temperature for 60 minutes. 5 μl of ADP-GLO™ Reagent are added. […] 10 μl of Kinase Detection Reagent are added. […] Luminescence is recorded (Integration time 0.5-1 second).

FAK = FAK (Homo sapiens, UniProt Q05397); experiment: FAK Ki and selectivity versus Pyk2; assay type: biochemical
Pyk2 [2] = target: T1, Pyk2; settings: cited from earlier work
[3] = test system: Aβo-induced suppression of LTP in hippocampal slices; experiment: Hippocampal CA3-CA1 LTP in acute brain slices with or without Aβo; assay type: cell-based, mouse; settings: WT slices
Experimental: FIG. 3A depicts WT slices that were treated with either vehicle or Aβo 30 min prior to theta burst stimulation (TBS). The slope of the field excitatory postsynaptic potential (fEPSP) is plotted as a function of time. Data are graphed as mean±SEM (n=6-12). Inset, representative traces immediately before TBS and 60 min post-TBS (red) are superimposed. FIG. 3B depicts WT and Pyk2−/− brain slices in the absence of Aβo, plotted as in FIG. 3A. FIG. 3C depicts average fEPSPs at 50-60 min post-TBS plotted for the indicated conditions as mean±SEM (n=3-20). Where indicated, 500 nM PF719 kinase inhibitor was pre-incubated with WT slices for 60 min prior to addition of Aβo or vehicle for 30 min, and then TBS. One-way ANOVA, **, p<0.01.
The role of Pyk2 in Aβo-induced disruption of synaptic plasticity using hippocampal CA3 to CA1 LTP has also been evaluated, comparing WT and Pyk2−/− slices. […]
400-μm coronal slices were prepared as described elsewhere herein and submerged in a recording chamber (BSC-PC, Warner Instruments) containing aCSF with 2.4 mM CaCl2 that was continuously oxygenated (95% O2, 5% CO2). […] Extracellular field excitatory post-synaptic potentials (fEPSPs) were recorded using a glass microelectrode (2-6 MS2) (4878, World Precision Instruments) filled with aCSF, and placed in the Stratum radiatum of CA1 neurons. […]

Pyk2 [4] = target: T1, Pyk2; experiment: Pyk2 Ki of kinase inhibitors (CHEMBL & IUPHR-BPS database screen, Table 2); assay type: biochemical; settings: Pyk2 versus Fyn
[5] = test system: primary hippocampal neurons; experiment: Dendritic spine motility in primary hippocampal neurons; assay type: cell-based, mouse; settings: Aβo 24 hours; PF-719 1 μM, Y27632 10 μM
Excerpt: FIG. 11A: Representative images of dendritic spine motility by standard deviation projection of time-lapse image. […] The standard deviation value for each pixel is shown by thermal color scale. […] FIG. 11B: Quantification of spine motility, expressed as % of changed area of spines with subtraction of changed area of dendritic shaft as background (changed area=(ΔAspine/Aspine×100)−(ΔAshaft/Ashaft×100)). […] Data are graphed as mean±SEM (n=7-8 coverslips from 3 different cultures). **p<0.01, ***p<0.001 by ANOVA, Tukey's multiple comparisons test.
FIG. 18A: Representative images of dendritic spine motility by standard deviation projection of time stacks. […] To display the spine motility in time-lapse images, the time stack images over 5 min of each conditions were projected to standard deviation using Image J and color coated with thermal color scale. […] FIG. 18B: Quantification of spine motility, expressed as % of changed area of spines with subtraction of dendritic shaft area change (changed area=(ΔAspine/Aspine×100)−(ΔAshaft/Ashaft×100)). Mean±SEM (n=5 coverslips).
Time-lapse images were acquired for 5 minutes with 10 second intervals in Tyrode's solution using 60× objective lens driven Volocity software. Time-lapse images (31 time frames over 5 min) were subjected to standard deviation (STD) projection to visualize spine motility in single image and colorized with thermal scale using ImageJ software (NIH). Quantitative measurements of spine motility by calculating the changed area at individual dendritic spines were conducted by using ImageJ software by an observer unaware of treatment group.

T1 sequence (Q14289 whole entry, species assumed): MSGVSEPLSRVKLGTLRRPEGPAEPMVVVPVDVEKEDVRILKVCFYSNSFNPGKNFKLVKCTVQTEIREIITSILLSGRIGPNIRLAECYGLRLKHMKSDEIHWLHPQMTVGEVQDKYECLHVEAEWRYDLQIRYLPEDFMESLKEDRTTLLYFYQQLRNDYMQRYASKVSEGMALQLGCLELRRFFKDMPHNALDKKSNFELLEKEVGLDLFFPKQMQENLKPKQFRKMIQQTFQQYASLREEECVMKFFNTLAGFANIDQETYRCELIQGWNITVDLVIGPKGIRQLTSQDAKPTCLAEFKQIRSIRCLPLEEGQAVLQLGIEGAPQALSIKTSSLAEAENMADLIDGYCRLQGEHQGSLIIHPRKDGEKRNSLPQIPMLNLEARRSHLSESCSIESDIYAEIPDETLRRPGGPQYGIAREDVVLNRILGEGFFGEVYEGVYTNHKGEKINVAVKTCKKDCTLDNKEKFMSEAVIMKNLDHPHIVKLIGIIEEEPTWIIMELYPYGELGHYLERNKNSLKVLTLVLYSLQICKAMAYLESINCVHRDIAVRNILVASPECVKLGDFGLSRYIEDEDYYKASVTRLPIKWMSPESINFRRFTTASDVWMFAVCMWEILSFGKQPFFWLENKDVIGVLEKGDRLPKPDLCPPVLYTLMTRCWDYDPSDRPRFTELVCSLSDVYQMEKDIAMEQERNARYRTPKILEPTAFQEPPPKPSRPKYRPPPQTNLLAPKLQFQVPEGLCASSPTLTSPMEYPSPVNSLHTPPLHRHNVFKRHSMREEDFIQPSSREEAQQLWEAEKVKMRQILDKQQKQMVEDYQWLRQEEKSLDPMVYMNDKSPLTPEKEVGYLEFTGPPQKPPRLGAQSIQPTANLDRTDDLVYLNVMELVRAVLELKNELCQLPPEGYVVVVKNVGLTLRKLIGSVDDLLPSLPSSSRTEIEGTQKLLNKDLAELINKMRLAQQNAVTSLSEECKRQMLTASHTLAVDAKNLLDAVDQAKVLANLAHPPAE
FAK, sequence (Q05397 whole entry, species assumed): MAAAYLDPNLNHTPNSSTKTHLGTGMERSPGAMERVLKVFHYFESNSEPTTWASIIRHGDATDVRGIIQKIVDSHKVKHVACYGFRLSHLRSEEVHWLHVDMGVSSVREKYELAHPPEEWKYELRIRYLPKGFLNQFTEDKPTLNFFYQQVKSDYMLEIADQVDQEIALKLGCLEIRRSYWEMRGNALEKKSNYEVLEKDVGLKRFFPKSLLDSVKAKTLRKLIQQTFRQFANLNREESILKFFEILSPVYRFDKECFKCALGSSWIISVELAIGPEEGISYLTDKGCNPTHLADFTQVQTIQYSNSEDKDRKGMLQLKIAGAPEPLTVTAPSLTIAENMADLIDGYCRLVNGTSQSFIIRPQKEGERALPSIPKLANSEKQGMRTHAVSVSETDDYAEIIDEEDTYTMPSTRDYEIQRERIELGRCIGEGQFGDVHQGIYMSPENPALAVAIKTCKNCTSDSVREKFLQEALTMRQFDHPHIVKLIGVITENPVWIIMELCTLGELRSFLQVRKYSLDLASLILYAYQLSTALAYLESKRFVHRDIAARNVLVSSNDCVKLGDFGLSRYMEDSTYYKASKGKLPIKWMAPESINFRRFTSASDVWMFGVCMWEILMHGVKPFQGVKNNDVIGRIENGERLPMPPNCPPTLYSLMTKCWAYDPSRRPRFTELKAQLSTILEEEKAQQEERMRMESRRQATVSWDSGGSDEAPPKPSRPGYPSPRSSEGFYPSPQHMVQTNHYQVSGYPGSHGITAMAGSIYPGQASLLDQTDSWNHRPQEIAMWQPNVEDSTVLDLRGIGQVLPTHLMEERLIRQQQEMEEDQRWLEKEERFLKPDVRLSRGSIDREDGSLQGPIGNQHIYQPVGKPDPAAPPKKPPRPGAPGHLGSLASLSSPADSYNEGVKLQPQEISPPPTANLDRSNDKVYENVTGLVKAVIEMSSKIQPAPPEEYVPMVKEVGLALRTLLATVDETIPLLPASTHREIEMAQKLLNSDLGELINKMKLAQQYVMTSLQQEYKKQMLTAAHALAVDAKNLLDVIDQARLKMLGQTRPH

Pyk2 inhibition in luciferase-based biochemical assay (Pyk2 [1]): confirm the respective specificities
selectivity Pyk2 versus FAK (FAK): 30 ×
Inhibition Character (Pyk2 [4]): Pyk2 selective
SMILES: CCOc1ccc2nc(SCc3nc(N)nc(N4CCOCC4)n3)sc2c1 [PF-719, 4-(((6-ethoxybenzo[d]thiazol-2-yl)thio)methyl)-6-morpholino-1,3,5-triazin-2-amine]
baseline Pyk2 activation and Aβo-induced signaling in cells (Pyk2 activation (p-Pyk2)): blocked baseline Pyk2 activation and Aβo-induced signaling
pKi (Pyk2 [2]; isolated Pyk2, read-out: Ki for isolated Pyk2): 7.82
pKi (Pyk2 [2]; read-out: Pyk2 Ki): 8.00
Aβo-induced suppression of LTP ([3]; 500 nM, Aβo 30 min before TBS): protects these slices from Aβo-induced suppression
LTP without Aβo ([3]; nM concentrations (500 nM, 60 min pre-incubation)): does not block LTP
Aβo-induced decrease in spine motility [5]: rescue fully the Aβo-induced decrease in spine motility
